From US20030130210A1, “Method for treating a patient with neoplasia by treatment with an anthracycline antibiotic” (priority 1998, published 2003)

Assays:
HT-29 cells [1] = test: Cyclic nucleotide (cGMP, cAMP) levels in HT-29 cells by radioimmunoassay; format: cell-based, human; details: HT-29 cells treated for 30 minutes
Experimental: The amount of PDE activity can be determined by assaying for the amount of cyclic GMP in the extract of treated cells using a radioimmunoassay (RIA). In this procedure, a neoplastic cell line is incubated with a test compound. […]
It has been observed that a compound which is useful in the practice of this invention (i.e., one that selectively induces apoptosis in neoplastic cells, but not substantially in normal cells) follows a time course consistent with cGMP-specific PDE inhibition. […] The intracellular targets of these drug actions are being studied further, but current data support the concept that the initial rise in cGMP content and the subsequent fall in cAMP content precede apoptosis in neoplastic cells exposed to test compounds useful in this invention. To determine the cyclic AMP content in cell extracts, radioimmunoassay techniques similar to those described above for cGMP are used.

HT-29 cells [2] = test: Apoptosis and necrosis by morphology (acridine orange / ethidium bromide) in HT-29 cells; format: cell-based, human; details: 120 μM
Experimental: Treatment of cells with test compounds involves either pre- or post-confluent cultures and treatment for two to seven days at various concentrations of the compound in question. Apoptotic cells are measured by combining both the attached and “floating” compartments of the cultures. The protocol for treating tumor cell cultures with sulindac and related compounds to obtain a significant amount of apoptosis has been described in the literature. (See, Piazza, G. A., et al., Cancer Research, 55:3110-16, 1995, which is incorporated herein by reference). The novel features include collecting both floating and attached cells, identification of the optimal treatment times and dose range for observing apoptosis, and identification of optimal cell culture conditions. […]
Reference compounds and test compounds were analyzed for their cGMP-specific PDE inhibitory activity in accordance with the protocols for the assay, supra. […] Apoptotic and necrotic cell death was determined as previously described (Duke and Cohen, In: Current Protocols in Immunology, 3.17.1-3.17.16, New York, John Wiley and Sons, 1992). […]
The apoptosis inducing activity for a series of phosphodiesterase inhibitors was determined. […] Apoptosis and necrosis were determined morphologically after acridine orange and ethidium bromide labeling in accordance with the assay described, supra.

HT-29 cells [3] = test: Tumor cell growth inhibition in HT-29 cells; format: cell-based, human; details: 120 μM, viable cell count after trypan blue staining
[4] = Side effects of exisulind on administration; format: in vivo; details: doses higher than the recommended therapeutic levels; reversible
Source text: This effect is reversible, and liver enzymes return to normal levels when the administered dose of exisulind returns to the traditionally recommended level or when treatment is discontinued. The most serious side effects of anthracycline antibiotics, on the other hand, is their myocardial toxicity and their myelosuppressive activity.

HT-29 cells [5] = test: Apoptosis by DNA fragmentation assay in HT-29 cells; format: cell-based, human; details: apoptosis inducing activity

| SMILES | effect on levels of cAMP (HT-29 cells [1]) | Fold induction at 100 μM (HT-29 cells [5]) | other results |
| --- | --- | --- | --- |
| CSc1ccc(/C=C2/C(C)=C(CC(=O)O)c3cc(F)ccc32)cc1 [Sulindac sulfide] | unaffected |  | apoptosis, time course (HT-29 cells [2]): increase in apoptosis; growth inhibition, time course (HT-29 cells [3]): capable of inhibiting tumor cell growth |
| CC1=C(CC(=O)O)c2cc(F)ccc2/C1=C\c1ccc(S(C)(=O)=O)cc1 [Exisulind, (Z)-5-fluoro-2-methyl-1-[[4-(methylsulfonyl)phenyl]methylene]indene-3-yl acetic acid] |  |  | side effects at doses higher than recommended [4]: elevated levels of liver enzymes |
| CCCCCC[C@@H]([C@@H](C)O)n1cnc2c(N)ncnc21 (racemic) [EHNA] |  | <2.0 fold |  |
| COc1ccc(C2CNC(=O)C2)cc1OC1CCCC1 (stereo not shown) [Rolipram] | increased cAMP levels |  |  |
| CCN(CC)CCSC12CC(=O)OC1(C)/C(=C/c1ccc(S(C)(=O)=O)cc1)c1ccc(F)cc12 (racemic) [A, rac-threo-(E)-1-(N,N′-diethylaminoethanethio)-1-(butan-1′,4′-olido)-[3′,4′:1,2]-6-fluoro-2-methyl-3-(p-methylsulfonylbenzylidene)-indan] |  | <2.0 fold |  |
